How the values were obtained:
Assay type in all cases: functional
Pythium [1] = experiment: Fungitoxic activity against Pythium sp. assessed as mycelial growth inhibition at 10 ppm after 3 days; conditions: 72 h, read-out: GI
Athelia rolfsii [2] = experiment: Fungitoxic activity against Athelia rolfsii assessed as mycelial growth inhibition at 10 ppm after 3 days; conditions: Agroathelia rolfsii, 72 h; read-out: GI
Pythium [3] = experiment: Fungitoxic activity against Pythium sp. assessed as mycelial growth inhibition at 100 ppm after 3 days; conditions: 72 h, read-out: GI
Athelia rolfsii [4] = experiment: Fungitoxic activity against Athelia rolfsii assessed as mycelial growth inhibition at 100 ppm after 3 days; conditions: Agroathelia rolfsii, 72 h; read-out: GI

| SMILES | inhibition of growth at 10 ppm (Pythium [1]) | inhibition of growth at 10 ppm (Athelia rolfsii [2]) | inhibition of growth at 100 ppm (Pythium [3]) | inhibition of growth at 100 ppm (Athelia rolfsii [4]) |
| --- | --- | --- | --- | --- |
| CC(C)OP(=O)(OC(C)C)SCc1ccccc1 [IPROBENFOS] | 42% | 69% | 89% | 100% |
| CCCOC/C(=N\c1ccc(Cl)cc1C(F)(F)F)n1ccnc1 [TRIFLUMIZOLE] | 71% | 64% | 94% | 100% |

From ChEMBL document CHEMBL3046900, “Synthesis and Fungitoxic Activity of N-Cinnamoyl--Amino Acid Esters” (2000)
